# Assays:
# [1] = target: ATP-binding cassette sub-family C member 3 (Mus musculus, UniProt B2RX12); assay: TP_TRANSPORTER: Branched DNA Assay in vivo, liver of mouse; type: functional, organism-based
# [2] = target: ATP-binding cassette sub-family C member 3 (Rattus norvegicus, UniProt O88563); assay: TP_TRANSPORTER: Branched DNA Assay in vivo, liver of WKY rat; type: functional, organism-based
# ATP-binding cassette sub-family C member 3 (Rattus norvegicus, UniProt O88563), sequence (O88563 whole entry): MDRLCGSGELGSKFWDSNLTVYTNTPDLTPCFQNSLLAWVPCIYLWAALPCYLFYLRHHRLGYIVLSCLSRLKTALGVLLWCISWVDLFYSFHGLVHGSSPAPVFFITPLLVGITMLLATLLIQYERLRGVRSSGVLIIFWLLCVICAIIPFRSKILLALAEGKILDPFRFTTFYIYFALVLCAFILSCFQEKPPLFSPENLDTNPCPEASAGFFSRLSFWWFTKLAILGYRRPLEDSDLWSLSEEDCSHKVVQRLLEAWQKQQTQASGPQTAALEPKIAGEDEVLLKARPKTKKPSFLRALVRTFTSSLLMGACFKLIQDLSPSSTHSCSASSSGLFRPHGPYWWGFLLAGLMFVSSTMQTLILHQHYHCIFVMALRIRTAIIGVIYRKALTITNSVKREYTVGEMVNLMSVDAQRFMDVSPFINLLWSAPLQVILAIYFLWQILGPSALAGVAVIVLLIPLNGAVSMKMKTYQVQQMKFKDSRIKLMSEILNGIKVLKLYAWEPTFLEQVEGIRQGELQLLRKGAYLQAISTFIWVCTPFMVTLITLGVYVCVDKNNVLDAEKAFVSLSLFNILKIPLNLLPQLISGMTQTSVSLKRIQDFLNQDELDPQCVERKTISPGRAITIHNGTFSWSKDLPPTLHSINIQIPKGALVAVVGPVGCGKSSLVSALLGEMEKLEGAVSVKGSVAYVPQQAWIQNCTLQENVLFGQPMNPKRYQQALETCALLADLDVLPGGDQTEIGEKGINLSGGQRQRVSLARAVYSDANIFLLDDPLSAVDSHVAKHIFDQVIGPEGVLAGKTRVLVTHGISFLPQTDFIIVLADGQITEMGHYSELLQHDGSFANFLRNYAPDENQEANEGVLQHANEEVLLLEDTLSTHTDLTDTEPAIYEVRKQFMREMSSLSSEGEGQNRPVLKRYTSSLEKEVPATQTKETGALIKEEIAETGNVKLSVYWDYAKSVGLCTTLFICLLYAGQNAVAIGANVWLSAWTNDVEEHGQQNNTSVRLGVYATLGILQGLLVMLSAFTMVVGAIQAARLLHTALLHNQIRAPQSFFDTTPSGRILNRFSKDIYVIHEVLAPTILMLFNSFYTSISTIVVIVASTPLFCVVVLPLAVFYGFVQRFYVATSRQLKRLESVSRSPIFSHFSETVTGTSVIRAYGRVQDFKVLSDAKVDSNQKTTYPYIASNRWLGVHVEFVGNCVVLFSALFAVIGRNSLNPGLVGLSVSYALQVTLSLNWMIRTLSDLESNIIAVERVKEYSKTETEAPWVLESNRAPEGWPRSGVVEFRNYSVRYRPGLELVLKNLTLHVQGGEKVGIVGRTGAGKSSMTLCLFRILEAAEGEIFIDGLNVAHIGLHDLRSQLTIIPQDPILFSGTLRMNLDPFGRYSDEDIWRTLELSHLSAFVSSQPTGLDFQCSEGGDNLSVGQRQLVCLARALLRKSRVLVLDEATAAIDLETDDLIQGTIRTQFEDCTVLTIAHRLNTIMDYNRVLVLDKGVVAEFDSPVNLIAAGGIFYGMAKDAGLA
# ATP-binding cassette sub-family C member 3 (Mus musculus, UniProt B2RX12), sequence (B2RX12 whole entry): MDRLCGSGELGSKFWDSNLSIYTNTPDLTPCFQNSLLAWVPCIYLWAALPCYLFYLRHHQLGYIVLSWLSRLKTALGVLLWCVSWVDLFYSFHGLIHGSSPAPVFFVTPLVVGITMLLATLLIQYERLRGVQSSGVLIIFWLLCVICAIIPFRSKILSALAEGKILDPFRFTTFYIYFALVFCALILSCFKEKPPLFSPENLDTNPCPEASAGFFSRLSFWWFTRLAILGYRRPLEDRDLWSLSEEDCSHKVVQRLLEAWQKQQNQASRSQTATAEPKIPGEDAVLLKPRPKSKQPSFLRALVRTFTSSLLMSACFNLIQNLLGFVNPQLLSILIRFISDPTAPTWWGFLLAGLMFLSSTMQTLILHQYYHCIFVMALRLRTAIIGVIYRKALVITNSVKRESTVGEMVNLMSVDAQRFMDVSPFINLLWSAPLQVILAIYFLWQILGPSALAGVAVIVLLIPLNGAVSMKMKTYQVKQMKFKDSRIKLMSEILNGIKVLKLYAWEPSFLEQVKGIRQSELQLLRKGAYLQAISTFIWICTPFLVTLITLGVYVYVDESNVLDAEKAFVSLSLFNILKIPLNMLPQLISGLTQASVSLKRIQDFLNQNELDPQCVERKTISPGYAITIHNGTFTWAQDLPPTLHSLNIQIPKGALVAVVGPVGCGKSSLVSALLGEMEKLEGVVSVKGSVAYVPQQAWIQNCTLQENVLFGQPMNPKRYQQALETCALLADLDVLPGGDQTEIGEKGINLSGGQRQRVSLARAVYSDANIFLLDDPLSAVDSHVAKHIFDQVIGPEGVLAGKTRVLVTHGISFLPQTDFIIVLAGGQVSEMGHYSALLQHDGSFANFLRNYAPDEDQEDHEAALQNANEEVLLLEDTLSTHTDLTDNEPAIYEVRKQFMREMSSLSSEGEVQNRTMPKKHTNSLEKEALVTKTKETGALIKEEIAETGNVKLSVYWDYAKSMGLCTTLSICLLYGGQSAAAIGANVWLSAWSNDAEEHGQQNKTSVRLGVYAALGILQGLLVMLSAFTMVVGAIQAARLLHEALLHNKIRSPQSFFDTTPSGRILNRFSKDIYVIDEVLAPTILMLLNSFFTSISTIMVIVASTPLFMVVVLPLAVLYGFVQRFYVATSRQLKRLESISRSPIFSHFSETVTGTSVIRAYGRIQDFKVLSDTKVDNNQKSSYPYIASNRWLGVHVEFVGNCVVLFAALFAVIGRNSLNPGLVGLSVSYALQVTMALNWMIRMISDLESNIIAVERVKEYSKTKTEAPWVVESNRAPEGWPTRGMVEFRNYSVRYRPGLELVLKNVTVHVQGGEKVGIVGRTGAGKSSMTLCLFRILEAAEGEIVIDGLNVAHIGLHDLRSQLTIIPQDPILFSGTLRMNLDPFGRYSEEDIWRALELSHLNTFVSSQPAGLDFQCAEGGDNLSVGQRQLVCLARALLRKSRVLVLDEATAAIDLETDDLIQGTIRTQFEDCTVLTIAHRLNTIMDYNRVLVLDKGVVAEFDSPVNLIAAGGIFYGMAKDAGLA
structure (smiles),measurement,setting,value
c1ccc([C@H]2O[C@@H]2c2ccccc2)cc1 (relative stereo),Activity,[1],inducer []
same,Activity,[2],inducer []
C=CCSCC=C [DIALLYL SULFIDE],Activity,[1],inducer []
same,Activity,[2],inducer []
Cc1c(-c2cnccn2)ssc1=S [OLTIPRAZ],Activity,[1],inducer []
same,Activity,[2],inducer []
CCC1(c2ccccc2)C(=O)NC(=O)NC1=O [PHENOBARBITAL],Activity,[1],inducer []
same,Activity,[2],inducer []

# Source: ChEMBL document CHEMBL2074540, “Induction of multidrug resistance protein 3 (mrp3) in vivo is independent of constitutive androstane receptor” (Drug Metab Dispos, 2003)
